Tests used:
[1] = molecular target: T1, Ceramide glucosyltransferase (Homo sapiens, UniProt Q16739); test: Inhibition of Glucosylceramide synthase (unknown origin) using C6-ceramide and UDP-glucose as substrate preincubated for 30 mins followed by substrate addition and measured after 2 hrs by UDP-Glo luminometer analysis
T1 sequence (Q16739 whole entry): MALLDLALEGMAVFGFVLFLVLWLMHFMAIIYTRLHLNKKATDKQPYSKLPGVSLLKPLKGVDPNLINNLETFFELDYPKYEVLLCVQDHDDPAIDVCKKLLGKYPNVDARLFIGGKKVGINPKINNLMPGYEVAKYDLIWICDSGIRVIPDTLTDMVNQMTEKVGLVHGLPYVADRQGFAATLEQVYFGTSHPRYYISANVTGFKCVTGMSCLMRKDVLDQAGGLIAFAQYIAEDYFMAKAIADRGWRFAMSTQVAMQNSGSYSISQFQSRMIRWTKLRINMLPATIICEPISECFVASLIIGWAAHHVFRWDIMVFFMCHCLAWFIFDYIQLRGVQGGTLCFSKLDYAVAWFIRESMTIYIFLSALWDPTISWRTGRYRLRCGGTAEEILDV

rat P-gp [2] = test: Substrate activity at rat P-gp assessed as efflux ratio at 1 uM; type: ADME; settings: not told
[3] = molecular target: T1, Ceramide glucosyltransferase; test: Inhibition of GCS in human fibroblast; type: cell-based
mouse BCRP (ABCG2) [4] = molecular target: T2, mouse BCRP (ABCG2) (Mus musculus, UniProt Q7TMS5); test: Substrate activity at mouse BCRP assessed as efflux ratio at 1 uM; type: ADME; settings: not told
T2 sequence (Q7TMS5 whole entry): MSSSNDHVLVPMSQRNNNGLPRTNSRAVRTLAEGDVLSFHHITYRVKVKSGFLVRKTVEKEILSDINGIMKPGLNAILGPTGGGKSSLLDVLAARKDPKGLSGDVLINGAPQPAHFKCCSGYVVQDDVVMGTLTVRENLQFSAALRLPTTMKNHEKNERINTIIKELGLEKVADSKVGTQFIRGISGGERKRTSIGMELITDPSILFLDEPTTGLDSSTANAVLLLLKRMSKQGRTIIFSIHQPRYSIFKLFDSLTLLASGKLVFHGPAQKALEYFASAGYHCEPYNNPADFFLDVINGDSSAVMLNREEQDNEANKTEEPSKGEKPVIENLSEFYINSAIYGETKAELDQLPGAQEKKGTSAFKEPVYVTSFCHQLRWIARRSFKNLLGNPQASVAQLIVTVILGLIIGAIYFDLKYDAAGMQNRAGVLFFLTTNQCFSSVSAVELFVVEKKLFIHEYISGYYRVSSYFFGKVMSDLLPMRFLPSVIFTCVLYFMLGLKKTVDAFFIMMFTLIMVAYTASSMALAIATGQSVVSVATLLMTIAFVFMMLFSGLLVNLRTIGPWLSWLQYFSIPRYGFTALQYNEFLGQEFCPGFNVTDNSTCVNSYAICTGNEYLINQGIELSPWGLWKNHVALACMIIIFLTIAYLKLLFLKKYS

mouse BCRP (ABCG2) [5] = molecular target: T2, mouse BCRP (ABCG2); test: Substrate activity at mouse BCRP assessed as apparent permeability at 1 uM; type: ADME; settings: not told
[6] = molecular target: T3, 5-hydroxytryptamine receptor 3A (Homo sapiens, UniProt P46098); test: Antagonist activity at human 5HT3A expressed in HEK293 cells incubated for 1 hr by FLIPR assay; type: cell-based
T3 sequence (P46098 whole entry): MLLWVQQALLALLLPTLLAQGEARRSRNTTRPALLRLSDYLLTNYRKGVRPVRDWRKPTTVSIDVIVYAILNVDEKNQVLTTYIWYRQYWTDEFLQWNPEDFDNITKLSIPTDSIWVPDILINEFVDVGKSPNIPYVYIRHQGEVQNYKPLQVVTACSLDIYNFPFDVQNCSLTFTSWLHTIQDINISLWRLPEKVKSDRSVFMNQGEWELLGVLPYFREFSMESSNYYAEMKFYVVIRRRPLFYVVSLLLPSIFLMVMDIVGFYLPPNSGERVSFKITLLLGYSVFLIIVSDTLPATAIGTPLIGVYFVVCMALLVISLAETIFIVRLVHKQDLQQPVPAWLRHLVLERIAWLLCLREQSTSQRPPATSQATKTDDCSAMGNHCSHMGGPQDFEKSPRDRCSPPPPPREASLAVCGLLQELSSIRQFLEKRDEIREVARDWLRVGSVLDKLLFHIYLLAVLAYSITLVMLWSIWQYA

Homo sapiens = species: Homo sapiens; test: Selectivity ratio of IC50 for human 5HT3A to IC50 for GCS (unknown origin)
[7] = Intrinsic clearance in rat at 5 to 10 mg/kg, po or 0.05 to 2 mg/kg, iv; type: ADME, organism-based; settings: in vivo, dose 5-10 mg/kg
[8] = Mean residence time in rat at 5 to 10 mg/kg, po or 0.05 to 2 mg/kg, iv; type: ADME, organism-based; settings: in vivo, dose 5-10 mg/kg
[9] = Bioavailability in rat at 5 to 10 mg/kg, po or 0.05 to 2 mg/kg, iv; type: ADME, organism-based; settings: in vivo, dose 5-10 mg/kg
rat P-gp [10] = test: Substrate activity at rat P-gp assessed as apparent permeability at 1 uM; type: ADME; settings: not told
[11] = Lipophilicity, logD of compound by HPLC method; type: physicochemical

| Compound | IC50 [1] [nM] | efflux ratio at 1 µM (rat P-gp [2]) | IC50 [3] [nM] | efflux ratio at 1 µM (mouse BCRP (ABCG2) [4]) | Papp at 1 µM (mouse BCRP (ABCG2) [5]) [×10⁻⁶ cm/s] | IC50 [6] [nM] | Ratio IC50 (Homo sapiens) | CL [7] [mL/min/kg] | MRT [8] [h] | bioavailability [9] [%] | Papp at 1 µM (rat P-gp [10]) [×10⁻⁶ cm/s] | logD [11] |
| --- | --- | --- | --- | --- | --- | --- | --- | --- | --- | --- | --- | --- |
| COc1ccc(-n2nc(C(=O)N3CCN(C)CC(F)C3)c3c2CCOC3)cc1 (racemic) | 12500 | – | – | – | – | – | – | – | – | – | – | – |
| O=C(N1CCN2CCC1CC2)n1nc(-n2cc(C(F)(F)F)cn2)c2c1CCC2 | – | 1.7 | 32 | 0.8 | 24 | 2190 | 5480 | 89 | 5.9 | 25 | – | – |
| O=C(c1nn(-c2ccc(F)c(Cl)c2)c2c1COCC2)N1CCN2CCC1CC2 | 6 | 19 | – | – | – | – | – | – | – | – | 32 | 1.9 |
| COc1ccc(-n2nc(C(=O)N3CCNCC(CO)C3)c3c2CCOC3)cc1 (racemic) | – | – | – | – | – | – | – | – | – | – | 6 | – |
| O=C(N1CCN2CCC1CC2)n1nc(-c2ccc(C(F)(F)F)cc2)c2c1COCC2 | – | 3.2 | 21 | 1.2 | 33 | 1590 | 647 | 610 | 3.3 | – | – | – |
| O=C(N1CCN2CCC1CC2)n1nc(-n2cc(C(F)(F)F)cn2)c2c1CCOC2 | – | 2.7 | 32 | 1.2 | 42 | 7470 | 2070 | 39 | 3.2 | – | – | – |
| COc1ccc(-n2nc(C(=O)N3CCN4CCC3CC4)c3c2CCOC3)cc1 | – | – | – | – | – | – | – | – | – | – | 31 | – |
| COc1ccc(-n2nc(C(=O)N3CCCN(C)CC3)c3c2CCOC3)cc1 | 1000 | 5 | 180 | – | – | – | – | – | – | – | – | – |
| COc1ccc(-n2nc(C(=O)N3CC(c4cnc(C)n4C)C3)c3c2CCOC3)cc1 | > 28000 | – | – | – | – | – | – | – | – | – | – | – |
| O=C(N1CCN2CCC1CC2)n1nc(-c2ccc(F)c(Cl)c2)c2c1COCC2 | 1 | 1.7 | – | – | – | – | – | – | – | – | 24 | 2.8 |
| COc1ccc(-c2nn(C(=O)N3CCN4CCC3CC4)c3c2CCOC3)cc1 | – | 4.4 | 35 | 1.4 | 32 | 338 | 164 | 3510 | 0.7 | – | – | – |
| O=C(N1CCN2CCC1CC2)n1nc(-n2cc(C(F)(F)F)cn2)c2c1[C@H]1C[C@H]1C2 | – | 2.2 | 33 | 0.8 | 23 | 2470 | 25000 | 85 | 8.2 | 67 | – | – |
| O=C(N1CCN2CCC1CC2)n1nc(-n2cc(Cl)cn2)c2c1COCC2 | – | 4.4 | 37 | 1.4 | 32 | 585 | 96 | 120 | 1.1 | – | – | – |
| COc1ccc(-n2nc(C(=O)N3CCCNCC3)c3c2CCOC3)cc1 | 690 | – | – | – | – | – | – | – | – | – | – | – |
| CC1(C)Cc2c(c(-c3ccc(F)cc3)nn2C(=O)N2CCN3CCC2CC3)CO1 | – | 8.5 | 32 | 0.9 | 31 | 4210 | 470 | 180 | 2.6 | – | – | – |
| CCN1CCCN(C(=O)c2nn(-c3ccc(OC)cc3)c3c2COCC3)CC1 | 7400 | – | – | – | – | – | – | – | – | – | – | – |

Source: ChEMBL document CHEMBL5223177, “Pyrazole Ureas as Low Dose, CNS Penetrant Glucosylceramide Synthase Inhibitors for the Treatment of Parkinson's Disease” (ACS Med Chem Lett, 2023)
